US20240116885A1, “BENZOTHIAZOLE AND QUINOLINE DERIVATIVES AND THEIR USE” (Shanghai Yao Yuan Biotechnology Co., Ltd., priority 2020, published 2024)

Legend:
[1] = system: ALPK1-dependent NFκB reporter gene activation; assay: NFκB gene reporter alkaline phosphatase assay in HEK293 G9 cells; assay type: cell-based; conditions: Homo sapiens; HEK293 G9 cells stimulated with D-glycero-D-manno-6-fluoro-heptose-1β-S-ADP
Procedure: An alkaline phosphatase reporter assay system was used to measure inhibition of ALPK1-dependent NFκB reporter gene activation. Briefly, HEK293 cells stably expressing an NF-kB reporter (referred to herein as “G9 cells”) were maintained in DMEM as described above. For the assay, cells were seeded into 96-well plates at a density of 10,000 cells/well in Freestyle™ 293 Expression Medium (ThermoFisher), and allowed to attach overnight. Cells were pretreated with serially diluted compounds for 30 min and then stimulated with D-glycero-D-manno-6-fluoro-heptose-1β-S-ADP. […] NFkB gene activation was detected using the chromogenic substrate, para-nitrophenyl phosphate (pNPP) according to the manufacturer's protocols (pNPP Phosphatase Assay, Beyotime Biotechnology).

ALPK1 = ALPK1 (Homo sapiens (Human), UniProt Q96QP1); assay: ALPK1 in vitro kinase assay (HTRF, TIFA phosphorylation); assay type: biochemical; conditions: ADP-Heptose activated ALPK1
Procedure: ALPK1 kinase activity was measured in an in vitro assay using ADP-Heptose as the ALPK1 ligand and activator of its kinase activity and TIFA protein as the ALPK1 phosphorylation substrate. Since phosphorylated TIFA proteins oligomerize, Homogeneous Time-Resolved Fluorescence (HTRF) was used to measure protein:protein interaction between HA-tagged TIFA proteins as an indicator of TIFA phosphorylation.
In brief, dose-response studies were performed with HEK293 cells cultured in Dulbecco's Modified Eagle Medium (DMEM) supplemented 10% fetal bovine serum (FBS, Hyclone™) containing antibiotics (pen/strep, G418) in 384-well assay plates. Each well contained 0.1 mg TIFA, ALPK1 (2 nM final concentration in reaction mixture) and kinase buffer (100 mM of HEPES pH 7.4, 4 mM DTT, 40 mM MgCl2, 20 mM of β-Glycerol phosphate disodium salt, 0.4 mM of Na3VO4, 0.16 mg/mL). Titrations of the test compounds were prepared in dimethylsulphoxide (DMSO). The reaction was initiated by addition of ATP and ADP-Heptose.
For HTRF, samples were incubated with a Tb cryptate-labeled anti-HA antibody for capturing HA-tagged proteins according to the manufacturer's instructions (PerkinElmer™, CisBio™) and the fluorescence signal was quantified (Tecan Infinite F NANO+). HTRF signals were calculated as the HTRF ratio (ratio of fluorescence measured at 665 nm and 620 nm)×104 (thereby using the signal at 620 nm as an internal standard).
IC50 values were determined using 3- or 4-parameter logistic equation using GraphPad Prism version 6.00. The reference compound, A027, was used as a positive control for each plate.

ALPK1, sequence (Q96QP1 whole entry): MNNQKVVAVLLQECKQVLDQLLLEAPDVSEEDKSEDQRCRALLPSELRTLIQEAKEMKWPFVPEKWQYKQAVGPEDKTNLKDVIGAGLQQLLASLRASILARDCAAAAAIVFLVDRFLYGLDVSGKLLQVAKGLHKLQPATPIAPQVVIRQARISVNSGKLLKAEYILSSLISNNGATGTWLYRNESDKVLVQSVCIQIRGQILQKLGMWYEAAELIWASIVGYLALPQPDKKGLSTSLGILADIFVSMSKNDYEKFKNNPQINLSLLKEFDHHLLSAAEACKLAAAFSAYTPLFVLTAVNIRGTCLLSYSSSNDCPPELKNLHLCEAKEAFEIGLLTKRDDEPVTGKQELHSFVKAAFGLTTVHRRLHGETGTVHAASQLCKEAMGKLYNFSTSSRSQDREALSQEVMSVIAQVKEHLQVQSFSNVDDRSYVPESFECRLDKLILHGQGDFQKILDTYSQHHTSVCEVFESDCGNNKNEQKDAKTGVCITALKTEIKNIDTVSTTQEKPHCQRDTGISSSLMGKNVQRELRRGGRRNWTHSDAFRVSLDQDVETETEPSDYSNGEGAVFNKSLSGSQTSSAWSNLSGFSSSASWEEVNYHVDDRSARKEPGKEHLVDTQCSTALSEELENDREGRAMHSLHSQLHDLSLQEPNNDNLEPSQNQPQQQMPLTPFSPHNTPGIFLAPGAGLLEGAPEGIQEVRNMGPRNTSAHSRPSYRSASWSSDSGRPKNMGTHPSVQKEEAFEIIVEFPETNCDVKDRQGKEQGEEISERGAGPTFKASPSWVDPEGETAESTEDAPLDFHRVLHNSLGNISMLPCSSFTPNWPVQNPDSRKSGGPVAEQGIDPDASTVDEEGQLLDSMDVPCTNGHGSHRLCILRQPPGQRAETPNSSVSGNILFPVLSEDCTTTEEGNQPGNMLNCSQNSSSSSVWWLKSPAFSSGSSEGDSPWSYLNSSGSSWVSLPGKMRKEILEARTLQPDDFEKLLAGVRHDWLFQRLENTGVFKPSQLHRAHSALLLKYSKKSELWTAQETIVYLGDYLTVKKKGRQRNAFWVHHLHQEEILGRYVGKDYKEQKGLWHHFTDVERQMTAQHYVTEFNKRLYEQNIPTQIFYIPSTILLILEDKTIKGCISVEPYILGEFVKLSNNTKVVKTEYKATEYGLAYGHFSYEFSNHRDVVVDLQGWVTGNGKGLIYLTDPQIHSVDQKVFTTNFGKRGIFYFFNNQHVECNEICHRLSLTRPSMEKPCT

| Compound | IC50 [1] [µM] | IC50 (ALPK1) [µM] |
| --- | --- | --- |
| COc1cccc2ccc(NC(=O)c3c(F)cc(N4CCNCC4)cc3F)nc12 [Compound Q001, 2,6-difluoro-N-(8-methoxyquinolin-2-yl)-4-(piperazin-1-yl)benzamide] | 1.24 | 0.045 |
| COc1cccc2ccc(NC(=O)c3c(F)cc(N4CCN(C)CC4)cc3F)nc12 [Compound Q002, 2,6-difluoro-N-(8-methoxyquinolin-2-yl)-4-(4-methylpiperazin-1-yl)benzamide] | 2.3 | 0.157 |
| COc1cccc2ccc(NC(=O)c3c(F)cc(N4CCC(O)CC4)cc3F)nc12 [Compound Q003, 2,6-difluoro-4-(4-hydroxypiperidin-1-yl)-N-(8-methoxyquinolin-2-yl)benzamide] | 2.97 | 0.369 |
| COc1cccc2ccc(NC(=O)c3c(F)ccc(CN4CCNCC4)c3F)nc12 [Compound Q004, 2,6-difluoro-N-(8-methoxyquinolin-2-yl)-3-(piperazin-1-ylmethyl)benzamide] | 4.3 | 0.033 |
| COc1cccc2ccc(NC(=O)c3c(F)ccc(N4CCNCC4)c3F)nc12 [Compound Q005, 2,6-difluoro-N-(8-methoxyquinolin-2-yl)-3-(piperazin-1-yl)benzamide] | 1.37 | 0.258 |
| COc1cc(OC)c2nc(NC(=O)c3c(F)cc(N4CCNCC4)cc3F)ccc2c1 [Compound Q006, N-(6,8-dimethoxyquinolin-2-yl)-2,6-difluoro-4-(piperazin-1-yl)benzamide] | 11.1 |  |
| COc1cc(F)cc2ccc(NC(=O)c3c(F)cc(N4CCNCC4)cc3F)nc12 [Compound Q007, 2,6-difluoro-N-(6-fluoro-8-methoxyquinolin-2-yl)-4-(piperazin-1-yl)benzamide] | 6.78 | 0.176 |
| COc1cccc2c(C)cc(NC(=O)c3c(F)cc(N4CCNCC4)cc3F)nc12 [Compound Q008, 2,6-difluoro-N-(8-methoxy-4-methylquinolin-2-yl)-4-(piperazin-1-yl)benzamide] | 2.92 | 0.149 |
| COc1cccc2ncc(NC(=O)c3c(F)cc(N4CCNCC4)cc3F)nc12 [Compound Q009, 2,6-difluoro-N-(8-methoxyquinoxalin-2-yl)-4-(piperazin-1-yl)benzamide] | 3.72 | 0.178 |
| COc1cccc2sc(NC(=O)c3c(F)cc(N4CC5CC(C4)N5)cc3F)nc12 [Compound T001, 4-(3,6-diazabicyclo[3.1.1]heptan-3-yl)-2,6-difluoro-N-(4-methoxybenzo[d]thiazol-2-yl)benzamide] | 1.31 | 0.095 |
| COc1cccc2sc(NC(=O)c3c(C)cc(N4CCNCC4)cc3F)nc12 [Compound T002, 2-fluoro-N-(4-methoxybenzo[d]thiazol-2-yl)-6-methyl-4-(piperazin-1-yl)benzamide] | 2.46 | 0.176 |
| COc1cccc2sc(NC(=O)c3c(F)cc(-c4cccc(C(=O)O)c4)cc3F)nc12 [Compound T003, 3′,5′-difluoro-4′-((4-methoxybenzo[d]thiazol-2-yl)carbamoyl)-[1,1′-biphenyl]-3-carboxylic acid] | 1.49 | 0.159 |
| CCN1CCN(c2cc(F)c(C(=O)Nc3nc4c(OC)cccc4s3)c(F)c2)CC1 [Compound T004, 4-(4-ethylpiperazin-1-yl)-2,6-difluoro-N-(4-methoxybenzo[d]thiazol-2-yl)benzamide] | 1.98 | 0.131 |
| CCCN1CCN(c2cc(F)c(C(=O)Nc3nc4c(OC)cccc4s3)c(F)c2)CC1 [Compound T005, 2,6-difluoro-N-(4-methoxybenzo[d]thiazol-2-yl)-4-(4-propylpiperazin-1-yl)benzamide] | 2.42 | 0.081 |
| COc1cccc2sc(NC(=O)c3c(Cl)cc(N4CCNCC4)cc3Cl)nc12 [Compound T008, 2,6-dichloro-N-(4-methoxybenzo[d]thiazol-2-yl)-4-(piperazin-1-yl)benzamide] | 1.95 | 0.057 |
| O=C(Nc1nc2c(Br)cccc2s1)c1c(F)cccc1F [Compound T009, N-(4-bromobenzo[d]thiazol-2-yl)-2,6-difluorobenzamide] | 5.86 | 0.415 |
| COc1cccc2sc(NC(=O)c3c(F)cc(N4CCNCC4)cc3Cl)nc12 [Compound T010, 2-chloro-6-fluoro-N-(4-methoxybenzo[d]thiazol-2-yl)-4-(piperazin-1-yl)benzamide] | 1.64 | 0.049 |

| Compound | IC50 [1] [µM] | IC50 (ALPK1) [µM] |
| --- | --- | --- |
| COC(=O)C1CCN(c2cc(F)c(C(=O)Nc3nc4c(OC)cccc4s3)c(F)c2)CC1 [Compound T011, methyl 1-(3,5-difluoro-4-((4-methoxybenzo[d]thiazol-2-yl)carbamoyl)phenyl)piperidine-4-carboxylate] | 6.65 | 0.42 |
| O=C(Nc1nc2c(C3CC3)cccc2s1)c1c(F)cccc1F [Compound T012, N-(4-cyclopropylbenzo[d]thiazol-2-yl)-2,6-difluorobenzamide] | 5.95 | 0.97 |
| COc1cccc2sc(NC(=O)c3c(F)cc(NCCN(C)C)cc3F)nc12 [Compound T013, 4-((2-(dimethylamino)ethyl)amino)-2,6-difluoro-N-(4-methoxybenzo[d]thiazol-2-yl)benzamide] | 5.22 | 0.507 |
| COc1cccc2sc(NC(=O)c3c(F)cc(N4CCNCC4C)cc3F)nc12 (centres unmarked) [Compound T014, 2,6-difluoro-N-(4-methoxybenzo[d]thiazol-2-yl)-4-(2-methylpiperazin-1-yl)benzamide] | 1.31 |  |
| COc1cccc2sc(NC(=O)c3c(F)cc(N4CCNC(C)C4)cc3F)nc12 (centres unmarked) [Compound T015, 2,6-difluoro-N-(4-methoxybenzo[d]thiazol-2-yl)-4-(3-methylpiperazin-1-yl)benzamide] | 4.47 | 0.349 |
| O=C(Nc1nc2c(Br)cccc2s1)c1c(F)ccc(N2CCNCC2)c1F [Compound T016, N-(4-bromobenzo[d]thiazol-2-yl)-2,6-difluoro-3-(piperazin-1-yl)benzamide] | 2.22 | 0.047 |
| COc1cccc2sc(NC(=O)c3c(F)cc(CN4CCNCC4)cc3F)nc12 [Compound T018, 2,6-difluoro-N-(4-methoxybenzo[d]thiazol-2-yl)-4-(piperazin-1-ylmethyl)benzamide] | 2.46 |  |
| O=C(Nc1nc2c(Br)cccc2s1)c1c(F)cc(CN2CCNCC2)cc1F [Compound T020, N-(4-bromobenzo[d]thiazol-2-yl)-2,6-difluoro-4-(piperazin-1-ylmethyl)benzamide] | 1.57 | 0.1 |
| O=C(Nc1nc2c(Br)cccc2s1)c1c(F)cc(CCN2CCNCC2)cc1F [Compound T021, N-(4-bromobenzo[d]thiazol-2-yl)-2,6-difluoro-4-(2-(piperazin-1-yl)ethyl)benzamide] | 1.2 | 0.148 |
| COc1cccc2sc(NC(=O)c3c(F)cc(N4CCOCC4)cc3F)nc12 [Compound T022, 2,6-difluoro-N-(4-methoxybenzo[d]thiazol-2-yl)-4-morpholinobenzamide] | 2.01 | 0.295 |
| COc1cccc2sc(NC(=O)c3c(F)cc(NCCO)cc3F)nc12 [Compound T023, 2,6-difluoro-4-((2-hydroxyethyl)amino)-N-(4-methoxybenzo[d]thiazol-2-yl)benzamide] | 4.3 | 0.289 |
| COc1cccc2sc(NC(=O)c3c(F)cc(N4CCN(Cc5ccccc5)C(=O)C4)cc3F)nc12 [Compound T024, 4-(4-benzyl-3-oxopiperazin-1-yl)-2,6-difluoro-N-(4-methoxybenzo[d]thiazol-2-yl)benzamide] | 1.15 | 0.321 |
| O=C(Nc1nc2c(F)cc(F)cc2s1)c1c(F)cc(N2CCNCC2)cc1F [Compound T035] | 5.02 |  |
| O=C(Nc1nc2ccccc2s1)c1c(F)cc(N2CCNCC2)cc1F [Compound T041, N-(benzo[d]thiazol-2-yl)-2,6-difluoro-4-(piperazin-1-yl)benzamide] | 3.96 |  |
| CC(C)Oc1cccc2sc(NC(=O)c3c(F)cc(N4CCNCC4)cc3F)nc12 [Compound T056, 2,6-difluoro-N-(4-isopropoxybenzo[d]thiazol-2-yl)-4-(piperazin-1-yl)benzamide] | 7.4 |  |
| CCOc1cccc2sc(NC(=O)c3c(F)cc(N4CCNCC4)cc3F)nc12 [Compound T057, N-(4-ethoxybenzo[d]thiazol-2-yl)-2,6-difluoro-4-(piperazin-1-yl)benzamide] | 8.7 |  |
